Assay [1] concerns the target T1, menin/MLL (terbium chelate-labeled menin, FITC-MBM1 peptide) (Homo sapiens, UniProt O00255, T541A).
T1 construct: Menin (a.a 1-610-6xhis tag, 2.3 mg/mL in 20 mM Hepes)
T1 sequence (O00255 with tags, fused parts or gaps T541A): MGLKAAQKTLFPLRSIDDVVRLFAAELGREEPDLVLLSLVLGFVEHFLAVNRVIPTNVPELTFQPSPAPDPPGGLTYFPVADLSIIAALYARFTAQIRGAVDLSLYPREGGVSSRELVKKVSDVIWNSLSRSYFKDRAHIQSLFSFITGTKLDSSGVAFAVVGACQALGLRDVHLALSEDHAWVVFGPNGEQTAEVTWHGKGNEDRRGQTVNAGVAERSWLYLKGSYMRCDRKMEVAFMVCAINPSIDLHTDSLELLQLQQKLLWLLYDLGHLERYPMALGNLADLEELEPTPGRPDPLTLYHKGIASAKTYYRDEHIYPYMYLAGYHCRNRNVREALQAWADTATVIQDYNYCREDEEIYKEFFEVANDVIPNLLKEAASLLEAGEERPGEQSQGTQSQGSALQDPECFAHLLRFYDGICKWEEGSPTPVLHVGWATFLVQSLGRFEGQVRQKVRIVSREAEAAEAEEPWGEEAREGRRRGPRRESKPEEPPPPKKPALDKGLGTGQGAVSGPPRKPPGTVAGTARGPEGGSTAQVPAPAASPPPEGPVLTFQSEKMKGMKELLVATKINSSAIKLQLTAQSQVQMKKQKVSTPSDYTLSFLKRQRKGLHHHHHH
The assay is described as follows: Menin/MLL homogenous time-resolved fluorescence (HTRF) assay. It counts as binding. The following applies: 30 min incubation. The procedure, abridged:
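Competition binding read by time-resolved FRET (FITC 520 nm over terbium 490 nm) after compound meets labeled menin 1-610-His […] for 30 min, then FITC-MBM1 (75 nM) for 15 min, ambient temperature, 0.5% DMSO. Eleven-point four-fold dilutions, usually starting at 10 μM, fitted to four-parameter curves for IC50.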

Another assay concerns MOLM14 cells. The assay is described as follows: Proliferation assay (spheroid confluence, 8 days), MOLM14. Particulars: read-out: spheroid assay_MOLM14 IC50. It counts as cell-based, human. The method, then: The anti-proliferative effect of menin/MLL protein/protein interaction inhibitor test compounds was assessed in human leukemia cell lines. The cell line MOLM14 harbors a MLL translocation and expresses the MLL fusion protein MLL-AF9, respectively, as well as the wildtype protein from the second allele. OCI-AML3 cells that carry the NPM1c gene mutation were also tested. […] KO-52 was used as a control cell line containing two MLL (KMT2A) wildtype alleles in order to exclude compounds that display general cytotoxic effects.
MOLM14 cells were cultured in RPMI-1640 (Sigma Aldrich) supplemented with 10% heat-inactivated fetal bovine serum (HyClone), 2 mM L-glutamine (Sigma Aldrich) and 50 μg/ml gentamycin (Gibco). KO-52 and OCI-AML3 cell lines were propagated in alpha-MEM (Sigma Aldrich) supplemented with 20% heat-inactivated fetal bovine serum (HyClone), 2 mM L-glutamine (Sigma Aldrich) and 50 μg/ml gentamycin (Gibco).
In order to assess the anti-proliferative effects, 200 MOLM14 cells, 200 OCI-AML3 cells or 300 KO-52 cells were seeded in 200 μl media per well in 96-well round bottom, ultra-low attachment plates (Costar, catalogue number 7007). Cell seeding numbers were chosen based on growth curves to ensure linear growth throughout the experiment. Test compounds were added at different concentrations and the DMSO content was normalized to 0.3%. Cells were incubated for 8 days at 37° C. and 5% CO2. Spheroid like growth was measured in real-time by live-cell imaging (IncuCyteZOOM, Essenbio, 4×objective) acquiring images at day 8. Confluence (%) as a measure of spheroid size was determined using an integrated analysis tool.
In order to determine the effect of the test compounds over time, the confluence in each well as a measure of spheroid size, was calculated. Confluence of the highest dose of a reference compound was used as baseline for the LC (Low control) and the confluence of DMSO treated cells was used as 0% cytotoxicity (High Control, HC).
Absolute IC50 values were calculated as percent change in confluence as follows:
LC=Low Control: cells treated with e.g. 1 μM of the cytotoxic agent staurosporin, or e.g. cells treated with a high concentration of an alternative reference compound
HC=High Control: Mean confluence (%) (DMSO treated cells)
% Effect=100−(100*(Sample−LC)/(HC−LC))
GraphPad Prism (version 7.00) was used to calculate the IC50. Dose-response equation was used for the plot of % Effect vs Log10 compound concentration with a variable slope and fixing the maximum to 100% and the minimum to 0%.

In a further assay the test system is MEIS1 mRNA expression. In words: MEIS1 mRNA expression assay (Quantigene Singleplex) in MOLM14 cells. The following applies: 48 hours incubation. It counts as cell-based, human. Summed up:
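Read-out: MEIS1 transcript counts, background-subtracted and divided by RPL28, expressed as fold change over DMSO-treated cells, then dose-response modelled for IC50. MOLM14 cells (3,750/well) received graded compound for 48 h before lysis and QuantiGene hybridization at 55 °C.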

pIC50: −log10 of the molar value. Where two headings read alike, the source gives them in different places.

By pIC50 is commonly meant −log10 of the IC50, conventionally taken in molar units.

As to `CC(=O)N1CCC(CN2CC[C@@H](Cc3cn(-c4ccc(F)cc4C(=O)N4CCC[C@@H]4CO)c4cncc(C)c34)C2)CC1` [Compound 322], the pIC50 was 9.82 in assay [1]; 6.49 in the assay with MOLM14 cells (Homo sapiens, MOLM-14, MOLM14); around 6.26 with MEIS1 mRNA expression (Homo sapiens, MOLM-14, 48 h).
On to `COCC(=O)N1CCC(C(C)N2CCC(Cc3cn(-c4ccc(F)cc4C(=O)N(C)C(C)C)c4cncc(C)c34)C2)CC1` (single isomer, unassigned) [Compound 117b], for which the negative-log IC50 (pIC50) in assay [1] was 9.57; in the assay on MOLM14 cells (MOLM14) it was 6.52; in the assay on MEIS1 mRNA expression, 6.39.
`CC(=O)N1CCC(C)(CN2CC[C@H](Cc3cn(-c4ccc(F)cc4C(=O)N(C)C(C)C)c4cncc(C)c34)C2)CC1` (single isomer, unassigned) [Compound 122]: the negative-log IC50 (pIC50) in assay [1] was 10.30; in the assay with MOLM14 cells (Homo sapiens, MOLM-14, MOLM14), 7.92; in the assay with MEIS1 mRNA expression (Homo sapiens, MOLM-14, 48 h), 7.74.
Taken in the same sequence, the figures for `Cc1cncc2c1c(C[C@@H]1CCN(CC3CCN(C(=O)N4CCOCC4)CC3)C1)cn2-c1ccc(F)cc1C(=O)N(C)C(C)C` [Compound 174] were 10.32, 8.15 and 7.47.
Taken in the same sequence, the figures for `COCCNC(=O)[C@H]1CC[C@H](CN2CC(Cc3cn(-c4ccc(F)cc4C(=O)N(C)C(C)C)c4cncc(C)c34)C2)CC1` [Compound 158] were 10.35, 8.22 and 7.62.
Taken in the same sequence, the figures for `CNC(=O)[C@H]1CC[C@H]([C@H](C)N2CC(Cc3cn(-c4ccc(F)cc4C(=O)N(C)C(C)C)c4cncc(C)c34)C2)CC1` (single isomer, unassigned) [Compound 163] were 9.72, 6.34 and around 6.21.
Regarding `Cc1cncc2c1c(CC1CN(CC3CCC(=O)NC3)C1)cn2-c1ccc(F)cc1C(=O)N(C)C(C)C` (stereo not drawn) [Compound 120], the pIC50 in assay [1] was 10.27; in the assay on MOLM14 cells (Homo sapiens, MOLM-14, MOLM14), 6.27; with MEIS1 mRNA expression (Homo sapiens, MOLM-14, 48 h), 6.83.
Taken in the same sequence, the figures for `Cc1cncc2c1c(CC1CN(C[C@H]3CC[C@H](C(=O)NC4CC4)CC3)C1)cn2-c1ccc(F)cc1C(=O)N(C)C(C)C` [Compound 159] were 10.72, 8.52 and 8.00.
Taken in the same sequence, the figures for `Cc1cncc2c1c(C[C@@H]1CCN(C[C@@H]3CCCCN3)C1)cn2-c1ccc(F)cc1C(=O)N(C)C(C)C` [Compound 148] were 10.07, 7.06 and 6.62.
For the compound `Cc1cncc2c1c(C[C@@H]1CCN(C[C@@H]3CCNC(=O)CC3)C1)cn2-c1ccc(F)cc1C(=O)N(C)C(C)C` (single isomer, unassigned) [Compound 169b], the pIC50 in assay [1] is 9.71; in the assay with MOLM14 cells (Homo sapiens, MOLM-14, MOLM14), 7.06; in the assay on MEIS1 mRNA expression (Homo sapiens, MOLM-14, 48 h) it was around 6.66.
As for `CC(=O)N1CC([C@H](C)N2CC[C@@H](Cc3cn(-c4ccc(F)cc4C(=O)N(C)C(C)C)c4cncc(C)c34)C2)C1` (single isomer, unassigned) [Compound 176], the negative-log IC50 (pIC50) in assay [1] was 9.70; in the assay on MOLM14 cells (Homo sapiens, MOLM-14, MOLM14), 7.34; in the assay on MEIS1 mRNA expression (Homo sapiens, MOLM-14, 48 h), 6.51.
In the same order, the values of `Cc1cncc2c1c(CC1CCN(CC3CCN(C(=O)C(C)(C)C#N)CC3)C1)cn2-c1ccc(F)cc1C(=O)N(C)C(C)C` (single isomer, unassigned) [Compound 126] are 10.04, 7.74 and 7.49.
In the same order, the values of `Cc1cncc2c1c(C[C@H]1CCN([C@H](C)C3CCOCC3)C1)cn2-c1ccc(F)cc1C(=O)N(C)C(C)C` (single isomer, unassigned) [Compound 49a] are 9.64, 6.95 and 6.66.
Taken in the same sequence, the figures for `CC(=O)N1CCC([C@@H](C)N2CC(Cc3cn(-c4ccc(F)cc4C(=O)N(C)C(C)C)c4cncc(C)c34)C2)CC1` (single isomer, unassigned) [Compound 150] were 9.37, 5.83 and below 6.00.
For the compound `Cc1cncc2c1c(CC1CN(C[C@H]3CC[C@H](C(=O)NCCC#N)CC3)C1)cn2-c1ccc(F)cc1C(=O)N(C)C(C)C` [Compound 155], the pIC50 in assay [1] was 10.29; in the assay with MOLM14 cells (Homo sapiens, MOLM-14, MOLM14) it was 7.31; in the assay with MEIS1 mRNA expression (Homo sapiens, MOLM-14, 48 h), 7.27.
In the case of `Cc1cncc2c1c(C[C@@H]1CCN(C3CCN(S(C)(=O)=O)CC3)C1)cn2-c1ccc(F)cc1C(=O)N(C)C(C)C` [Compound 161], the pIC50 in assay [1] was 9.78; in the assay with MOLM14 cells (Homo sapiens, MOLM-14, MOLM14) it was 7.28; in the assay with MEIS1 mRNA expression (Homo sapiens, MOLM-14, 48 h), 6.59.
Taken in the same sequence, the figures for `CN=[S@](=O)(c1cc(F)ccc1-n1cc(C[C@H]2CCN(CC3CCN(C(C)=O)CC3)C2)c2c(C)cncc21)C(C)C` (single isomer, unassigned) [Compound 128b] were 10.35, 7.40 and 7.19.
Consider `Cc1cncc2c1c(C[C@H]1CCN(CC3CCN(C(=O)NC4CC4)CC3)C1)cn2-c1ccc(F)cc1C(=O)N(C)C(C)C` [Compound 157], for which the pIC50 in assay [1] was 10.70; with MOLM14 cells (Homo sapiens, MOLM-14, MOLM14), 8.70; in the assay on MEIS1 mRNA expression (Homo sapiens, MOLM-14, 48 h), 8.22.
On to `Cc1cncc2c1c(C[C@@H]1CCN(C[C@H]3CCCCO3)C1)cn2-c1ccc(F)cc1C(=O)N(C)C(C)C` (single isomer, unassigned) [Compound 147a], for which the negative-log IC50 (pIC50) in assay [1] was 10.09; in the assay with MOLM14 cells (Homo sapiens, MOLM-14, MOLM14), 8.00; in the assay with MEIS1 mRNA expression (Homo sapiens, MOLM-14, 48 h), 7.28.
As to `Cc1cncc2c1c(CC1CCN(CC3(C)CCN(C(=O)CO)CC3)C1)cn2-c1ccc(F)cc1C(=O)N(C)C(C)C` (single isomer, unassigned) [Compound 123], the pIC50 was 10.28 in assay [1]; 7.80 with MOLM14 cells (Homo sapiens, MOLM-14, MOLM14); 7.51 in the assay with MEIS1 mRNA expression (Homo sapiens, MOLM-14, 48 h).
As to `CNC(=O)[C@H]1CC[C@H]([C@@H](C)N2CC(Cc3cn(-c4ccc(F)cc4C(=O)N(C)C(C)C)c4cncc(C)c34)C2)CC1` (single isomer, unassigned) [Compound 162], the pIC50 in assay [1] was 9.30; with MOLM14 cells (Homo sapiens, MOLM-14, MOLM14), 6.37; with MEIS1 mRNA expression (Homo sapiens, MOLM-14, 48 h) it was below 6.00.
In the same order, the values of `CC(=O)N1CCC(CN2CC[C@@H](Cc3cn(-c4ccc(F)cc4C(=O)N4CCC(O)C4C)c4cncc(C)c34)C2)CC1` (stereo in doubt) [Compound 325] are 9.47, 5.98 and 5.87.
Turning to `CN=S(=O)(c1cc(F)ccc1-n1cc(CC2CCN(CC3CCOCC3)C2)c2c(C)cncc21)C(C)C` (single isomer, unassigned) [Compound 77a], the negative logarithm of the IC50 (pIC50) in assay [1] is 9.98; in the assay on MOLM14 cells (MOLM14), 6.93; in the assay with MEIS1 mRNA expression, 6.69.
With `Cc1cncc2c1c(C[C@H]1CCN(CC3CCN(C(=O)N(C)C)CC3)C1)cn2-c1ccc(F)cc1C(=O)N(C)C(C)C` [Compound 170], the negative logarithm of the IC50 (pIC50) was 9.81 in assay [1]; 7.85 in the assay on MOLM14 cells (Homo sapiens, MOLM-14, MOLM14); 7.10 with MEIS1 mRNA expression (Homo sapiens, MOLM-14, 48 h).

Source of the values: patent US20230250096A1, “SUBSTITUTED PHENYL-1H-PYRROLO[2,3-c] PYRIDINE DERIVATIVES” (Janssen Pharmaceutica NV, priority 2021, published 2023).
